Laboratory results reported in ChEMBL document CHEMBL6071188, “Synthesis and In Vivo Profiling of Desymmetrized Antimalarial Trioxolanes with Diverse Carbamate Side Chains” (ACS Med Chem Lett, 2024).
In brackets after ≈: the same amount, converted by molar mass.

Columns and labels:
[1] = Metabolic stability in human liver microsomes assessed as intrinsic clearance; type: ADME, Microsome; settings: for microsomal intrinsic clearance: microsomes; for microsomal CLint: liver microsomes, read-out: CLH
[2] = Solubility of the compound in PBS buffer at pH 7.4; type: physicochemical

CS(=O)(=O)C1CN(C(=O)O[C@@H]2CCC[C@]3(C2)OOC2(O3)C3CC4CC(C3)CC2C4)C1 (some centres undefined)
microsomal intrinsic clearance [1]: 526 µL/min/mg
solubility kinetic [2]: 66.7 µM (≈ 29.5 µg/mL)

C[S+]([O-])C1CN(C(=O)O[C@H]2CCC[C@@]3(C2)OOC2(O3)C3CC4CC(C3)CC2C4)C1 (some centres undefined)
microsomal intrinsic clearance [1]: 750 µL/min/mg
solubility kinetic [2]: 184 µM (≈ 78.3 µg/mL)

CS(=N)(=O)CCNC(=O)O[C@H]1CCC[C@@]2(C1)OOC1(O2)C2CC3CC(C2)CC1C3 (some centres undefined)
microsomal intrinsic clearance [1]: 319 µL/min/mg
solubility kinetic [2]: 129 µM (≈ 55.3 µg/mL)

CC(C)(CN)CNC(=O)O[C@H]1CCC[C@@]2(C1)OOC1(O2)C2CC3CC(C2)CC1C3 (some centres undefined)
microsomal CLint [1]: 21.4 µL/min/mg
solubility kinetic [2]: 164 µM (≈ 67 µg/mL)

CC(C)C1(O)CN(C(=O)O[C@@H]2CCC[C@]3(C2)OOC2(O3)C3CC4CC(C3)CC2C4)C1 (some centres undefined)
microsomal intrinsic clearance [1]: 392 µL/min/mg
solubility kinetic [2]: 15.9 µM (≈ 6.7 µg/mL)

N[C@@H]1CCCN(C(=O)O[C@H]2CCC[C@@]3(C2)OOC2(O3)C3CC4CC(C3)CC2C4)C1 (some centres undefined)
microsomal intrinsic clearance [1]: 52.7 µL/min/mg
solubility kinetic [2]: 129 µM (≈ 52.4 µg/mL)

CS(=N)(=O)C1CN(C(=O)O[C@H]2CCC[C@@]3(C2)OOC2(O3)C3CC4CC(C3)CC2C4)C1 (some centres undefined)
microsomal intrinsic clearance [1]: 431 µL/min/mg
solubility kinetic [2]: 142 µM (≈ 62.6 µg/mL)

N=S(=O)(CCNC(=O)O[C@@H]1CCC[C@]2(C1)OOC1(O2)C2CC3CC(C2)CC1C3)C1CC1 (some centres undefined)
microsomal intrinsic clearance [1]: 435 µL/min/mg
solubility kinetic [2]: 79.3 µM (≈ 36 µg/mL)

CC(C)C1(O)CN(C(=O)O[C@H]2CCC[C@@]3(C2)OOC2(O3)C3CC4CC(C3)CC2C4)C1 (some centres undefined)
microsomal intrinsic clearance [1]: 657 µL/min/mg
solubility kinetic [2]: 15.1 µM (≈ 6.37 µg/mL)

N[C@H]1CC[C@H](NC(=O)O[C@H]2CCC[C@@]3(C2)OOC2(O3)C3CC4CC(C3)CC2C4)CC1 (some centres undefined)
microsomal intrinsic clearance [1]: 28.2 µL/min/mg

CCC1(O)CN(C(=O)O[C@H]2CCC[C@@]3(C2)OOC2(O3)C3CC4CC(C3)CC2C4)C1 (some centres undefined)
microsomal intrinsic clearance [1]: 638 µL/min/mg
solubility kinetic [2]: 41.5 µM (≈ 16.9 µg/mL)

O=C(O[C@H]1CCC[C@@]2(C1)OOC1(O2)C2CC3CC(C2)CC1C3)N1CC(O)(C(F)(F)F)C1 (some centres undefined)
microsomal intrinsic clearance [1]: 211 µL/min/mg
solubility kinetic [2]: 10.8 µM (≈ 4.83 µg/mL)

CS(=O)(=O)C1CN(C(=O)O[C@H]2CCC[C@@]3(C2)OOC2(O3)C3CC4CC(C3)CC2C4)C1 (some centres undefined)
microsomal intrinsic clearance [1]: 851 µL/min/mg
solubility kinetic [2]: 81.1 µM (≈ 35.8 µg/mL)

CS(=N)(=O)CCNC(=O)O[C@@H]1CCC[C@]2(C1)OOC1(O2)C2CC3CC(C2)CC1C3 (some centres undefined)
microsomal intrinsic clearance [1]: 243 µL/min/mg
solubility kinetic [2]: 128 µM (≈ 54.9 µg/mL)

CCCC1(O)CN(C(=O)O[C@@H]2CCC[C@]3(C2)OOC2(O3)C3CC4CC(C3)CC2C4)C1 (some centres undefined)
microsomal intrinsic clearance [1]: 579 µL/min/mg
solubility kinetic [2]: 16.1 µM (≈ 6.79 µg/mL)

NCCC1CCN(C(=O)O[C@H]2CCC[C@@]3(C2)OOC2(O3)C3CC4CC(C3)CC2C4)CC1 (some centres undefined)
microsomal intrinsic clearance [1]: 92.7 µL/min/mg
solubility kinetic [2]: 117 µM (≈ 50.8 µg/mL)

O=C(O[C@H]1CCC[C@@]2(C1)OOC1(O2)C2CC3CC(C2)CC1C3)N1CCNCC1 (some centres undefined)
microsomal intrinsic clearance [1]: 120 µL/min/mg
solubility kinetic [2]: 167 µM (≈ 65.5 µg/mL)

CS(=N)(=O)C1CN(C(=O)O[C@@H]2CCC[C@]3(C2)OOC2(O3)C3CC4CC(C3)CC2C4)C1 (some centres undefined)
microsomal intrinsic clearance [1]: 234 µL/min/mg
solubility kinetic [2]: 268 µM (≈ 118 µg/mL)

N[C@@H]1CCN(C(=O)O[C@H]2CCC[C@@]3(C2)OOC2(O3)C3CC4CC(C3)CC2C4)C1 (some centres undefined)
microsomal intrinsic clearance [1]: 58.7 µL/min/mg

CCCC1(O)CN(C(=O)O[C@H]2CCC[C@@]3(C2)OOC2(O3)C3CC4CC(C3)CC2C4)C1 (some centres undefined)
microsomal intrinsic clearance [1]: 683 µL/min/mg
solubility kinetic [2]: 18.2 µM (≈ 7.67 µg/mL)

NCC1CCN(C(=O)O[C@H]2CCC[C@@]3(C2)OOC2(O3)C3CC4CC(C3)CC2C4)CC1 (some centres undefined)
microsomal intrinsic clearance [1]: 69.6 µL/min/mg
solubility kinetic [2]: 112 µM (≈ 47.1 µg/mL)

CC(C)(CN)CNC(=O)O[C@@H]1CCC[C@]2(C1)OOC1(O2)C2CC3CC(C2)CC1C3 (some centres undefined)
microsomal CLint [1]: 14.3 µL/min/mg

O=C(O[C@@H]1CCC[C@]2(C1)OOC1(O2)C2CC3CC(C2)CC1C3)N1CCNCC1 (some centres undefined)
microsomal CLint [1]: 39.4 µL/min/mg
solubility kinetic [2]: 144 µM (≈ 56.5 µg/mL)

CN1CCN(C(=O)O[C@H]2CCC[C@@]3(C2)OOC2(O3)C3CC4CC(C3)CC2C4)CC1 (some centres undefined)
solubility kinetic [2]: 109 µM (≈ 44.3 µg/mL)
